Experimental data reported in patent US5158939A, “Method of stimulating the immune systems of animals and compositions useful therefor” (priority 1990, dated 1992).

Tested on: endotoxin
Test: Protection of mice against lethal endotoxin challenge
Assay type: in vivo
Conditions: compared with lipid X as reported in the literature
Description: The lethal dose of E. coli endotoxin was determined both for the intravenous and for the intraperitoneal challenge. […] (It is important to standardize each lot of endotoxin with each lot of mice.) To determine the approximate dose of lipid A derivative needed to protect against a lethal challenge of endotoxin, mice are pretreated with the lipid A derivative intraperitoneally 2 hours before challenge with 1500 μg of endotoxin, which is 3 times the LD100 dose. Pretreatment of mice with the lipid A derivative appeared to prolong the time to death.

CCCCCCC=CCCCCCC(=O)OC(CCCCCCCCCCC)CC(=O)NC1C(OCC2OC(OP(=O)(O)O)C(NC(=O)CC(=O)CCCCCCCCCCC)C(OC(=O)CC(O)CCCCCCC)C2O)OC(CO)C(OP(=O)(O)O)C1OC(=O)CC(O)CCCCCCC (stereo not shown) [DPLA]
protection of mice against a lethal dose of endotoxin: more effective than lipid X
